Data reported in patent US20230097580A1, “COMPOSITIONS AND METHODS FOR STIMULATING HAIR GROWTH” (Amplifica, Inc., priority 2020, published 2023).
Like-named read-outs stand apart in the source and are kept apart here.

System: dorsal skin of P53 mice
Details: for hair growth induction: summary of figures; for induction (of anagen / hair growth): 25, 50, 100 µg/mL injections, overall, two mice; for hair growth in injection spot: 3 µL on 3 consecutive days, 18 days after injection; for pigmentation at injection site: at P14
Excerpt: Follow up experiments included lower HA concentrations (below 250 .mu·g/mL). A small incision was done using a thin needle (insulin syringe) to facilitate injection. […] In FIGS. 5-8, when looking at the back of the mouse with the mouse's head at the top, the control (1% BSA) injection is top left, the 25 .mu·g/ml injection is top right, the 100 .mu·g/ml injection is bottom right, and the 50 .mu·g/ml injection is bottom left.
FIGS. 5 and 6 show representative images of two mice, each of which received injections of low molecular weight HA. FIGS. 7 and 8 show representative images of two mice, each of which received injections of high molecular weight HA.
For high molecular weight the injection site was monitored for 18 days for full anagen.

Row | Substance | hair growth induction (50 µg/mL) | hair growth induction (100 µg/mL) | induction (of anagen / hair growth) | hair growth in injection spot (FIG. 7 mouse, 50 µg/ml) | hair growth in injection spot (FIG. 7 mouse, 100 µg/ml) | hair growth in injection spot (FIG. 8 mouse, 25 µg/ml) | hair growth in injection spot (FIG. 8 mouse, 50 µg/ml) | pigmentation at injection site | anagen spot at injection site (25 µg/mL, mouse 2 (FIG. 6), only in one mouse) | hair growth in injection spot (FIG. 5 mouse, 25 µg/ml) | hair growth in injection spot (FIG. 5 mouse, 100 µg/ml) | hair growth in injection spot (FIG. 6 mouse, 25 µg/ml) | hair growth in injection spot (FIG. 6 mouse, 100 µg/ml)
1 | hyaluronic acid [high molecular weight HA] | induces | induces | good induction | growth | growth | growth | growth | apparent | – | – | – | – | –
2 | hyaluronic acid [intermediate weight HA] | – | – | no induction | – | – | – | – | – | – | – | – | – | –
3 | hyaluronic acid [low molecular weight HA] | – | induced hair growth | good induction | – | – | – | – | apparent | nice anagen spot | growth | growth | growth | growth
